# Results from patent publication US11034672B1, “Tyrosine kinase inhibitor compositions, methods of making and methods of use” (Black Diamond Therapeutics, Inc., priority 2018, dated 2021).
# pIC50: −log10 of the molar value.
# Assays:
# Assay type in all cases: cell-based
# [1] = biological target: T1, HER2 YVMA (Homo sapiens, UniProt P04626, INS775YVMA); assay: Activity for inhibiting HER2 (Table B), HER2 YVMA; settings: read-out: HER2 YVMA, potency code (IC50)
# T1 construct: expressed in transfected cells; host or cells: BaF3 (murine pro-B)
# Description: (§1) EC50 values were determined with the same application.
# [2] = biological target: T2, HER2 S310F (Homo sapiens, UniProt P04626, S310F); assay: BaF3 cell proliferation assay, HER2 S310F (Table B); settings: potency code, 3 days, CellTiterGlo, read-out: HER2 S310F (Activity for Inhibiting HER2)
# T2 construct: expressed in transfected cells; host or cells: BaF3 (murine pro-B)
# [3] = biological target: T3, EGFR WT (Homo sapiens, UniProt P00533); assay: BaF3 cell proliferation assay, EGFR WT (Table A); settings: potency code, 3 days, CellTiterGlo, read-out: EGFR WT (Activity for Inhibiting EGFR)
# How it was run: (§2)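 EC50s reflect growth of IL-3-independent BaF3 lines whose proliferation depends on the introduced human receptor variant. Lines were produced by retroviral infection and one week of 10 μg/ml Blasticidin selection.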
# [4] = biological target: T4, EGFR V3 (Homo sapiens, UniProt P00533, DELINS30-297G); assay: BaF3 cell proliferation assay, EGFR V3 (Table A); settings: potency code, 3 days, CellTiterGlo, read-out: EGFR V3 (Activity for Inhibiting EGFR)
# T4 construct: expressed in transfected cells; host or cells: BaF3 (murine pro-B), retroviral pMXs-IRES-Blasticidin
# How it was run: as §2
# [5] = biological target: T4, EGFR V3; assay: Activity for inhibiting EGFR (Table A), EGFR V3 (EGFR-Viii); settings: read-out: EGFR V3, potency code (IC50)
# [6] = biological target: T1, HER2 YVMA; assay: BaF3 cell proliferation assay, HER2 YVMA (Table B); settings: potency code, 3 days, CellTiterGlo, read-out: HER2 YVMA (Activity for Inhibiting HER2)
# [7] = biological target: T3, EGFR WT; assay: Activity for inhibiting EGFR (Table A), EGFR WT; settings: read-out: EGFR WT, potency code (IC50)
# [8] = biological target: T2, HER2 S310F; assay: Activity for inhibiting HER2 (Table B), HER2 S310F; settings: read-out: HER2 S310F, potency code (IC50)
# Description: as §1
# T2 sequence (P04626 23-1255 S310F): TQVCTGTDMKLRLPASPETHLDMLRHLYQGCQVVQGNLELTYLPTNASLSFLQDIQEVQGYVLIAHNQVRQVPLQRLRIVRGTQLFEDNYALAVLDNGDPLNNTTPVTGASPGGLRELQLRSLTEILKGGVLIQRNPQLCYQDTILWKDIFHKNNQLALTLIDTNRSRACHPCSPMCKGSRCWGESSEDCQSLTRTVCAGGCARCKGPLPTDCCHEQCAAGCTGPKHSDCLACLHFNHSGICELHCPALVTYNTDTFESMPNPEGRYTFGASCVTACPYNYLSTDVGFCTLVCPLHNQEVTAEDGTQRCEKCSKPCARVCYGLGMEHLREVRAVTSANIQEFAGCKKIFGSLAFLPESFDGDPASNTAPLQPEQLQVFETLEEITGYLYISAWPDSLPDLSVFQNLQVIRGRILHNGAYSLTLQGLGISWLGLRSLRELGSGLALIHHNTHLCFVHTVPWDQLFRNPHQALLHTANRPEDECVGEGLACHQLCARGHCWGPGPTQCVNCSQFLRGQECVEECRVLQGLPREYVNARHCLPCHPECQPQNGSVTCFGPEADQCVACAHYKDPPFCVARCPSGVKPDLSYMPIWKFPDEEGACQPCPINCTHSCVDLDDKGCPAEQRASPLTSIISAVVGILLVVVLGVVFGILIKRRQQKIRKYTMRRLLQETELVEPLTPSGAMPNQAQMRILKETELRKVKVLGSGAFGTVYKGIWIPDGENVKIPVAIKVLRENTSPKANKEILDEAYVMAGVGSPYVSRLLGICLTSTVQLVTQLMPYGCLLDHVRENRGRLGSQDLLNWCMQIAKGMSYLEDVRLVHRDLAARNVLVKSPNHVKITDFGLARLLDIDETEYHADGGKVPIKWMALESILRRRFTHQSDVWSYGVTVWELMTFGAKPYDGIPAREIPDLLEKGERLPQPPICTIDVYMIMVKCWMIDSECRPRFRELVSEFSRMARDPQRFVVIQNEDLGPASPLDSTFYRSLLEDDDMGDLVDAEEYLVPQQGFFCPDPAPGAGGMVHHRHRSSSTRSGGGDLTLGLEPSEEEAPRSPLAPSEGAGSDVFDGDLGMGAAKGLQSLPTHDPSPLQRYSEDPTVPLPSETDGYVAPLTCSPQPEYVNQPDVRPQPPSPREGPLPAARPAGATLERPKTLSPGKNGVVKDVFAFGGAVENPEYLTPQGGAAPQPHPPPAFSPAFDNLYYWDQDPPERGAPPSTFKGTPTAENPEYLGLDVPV
# T3 sequence (P00533 25-1210 N540K): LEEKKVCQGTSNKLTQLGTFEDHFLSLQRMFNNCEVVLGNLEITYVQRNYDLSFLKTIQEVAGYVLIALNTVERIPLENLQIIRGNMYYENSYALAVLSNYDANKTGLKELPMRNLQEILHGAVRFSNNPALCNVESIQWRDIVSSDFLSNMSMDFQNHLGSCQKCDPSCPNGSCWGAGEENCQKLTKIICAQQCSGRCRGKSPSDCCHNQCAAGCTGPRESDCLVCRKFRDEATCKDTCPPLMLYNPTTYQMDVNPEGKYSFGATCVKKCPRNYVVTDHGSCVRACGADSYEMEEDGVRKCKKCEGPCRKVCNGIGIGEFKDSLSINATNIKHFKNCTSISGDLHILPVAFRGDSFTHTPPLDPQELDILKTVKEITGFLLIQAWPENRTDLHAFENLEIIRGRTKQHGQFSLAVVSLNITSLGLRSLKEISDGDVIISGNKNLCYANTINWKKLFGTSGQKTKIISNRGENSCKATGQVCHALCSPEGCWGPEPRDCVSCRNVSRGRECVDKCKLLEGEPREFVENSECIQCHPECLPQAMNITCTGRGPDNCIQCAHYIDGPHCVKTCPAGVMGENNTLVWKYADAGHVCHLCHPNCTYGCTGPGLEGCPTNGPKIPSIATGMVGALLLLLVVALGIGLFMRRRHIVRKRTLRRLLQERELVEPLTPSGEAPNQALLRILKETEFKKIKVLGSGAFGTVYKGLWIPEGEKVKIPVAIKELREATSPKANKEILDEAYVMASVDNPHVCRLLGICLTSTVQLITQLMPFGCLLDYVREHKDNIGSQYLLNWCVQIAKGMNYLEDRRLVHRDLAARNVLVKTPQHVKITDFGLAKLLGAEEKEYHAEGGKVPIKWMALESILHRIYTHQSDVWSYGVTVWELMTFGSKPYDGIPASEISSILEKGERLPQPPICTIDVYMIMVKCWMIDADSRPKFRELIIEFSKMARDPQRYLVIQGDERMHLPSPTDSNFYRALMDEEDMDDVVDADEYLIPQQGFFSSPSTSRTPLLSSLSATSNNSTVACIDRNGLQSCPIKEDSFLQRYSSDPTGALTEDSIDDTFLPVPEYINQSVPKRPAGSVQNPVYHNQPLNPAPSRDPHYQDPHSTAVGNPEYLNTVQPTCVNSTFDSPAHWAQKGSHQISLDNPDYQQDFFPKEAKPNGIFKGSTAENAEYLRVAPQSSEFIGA
# T1 sequence (P04626 with tags, fused parts or gaps INS775YVMA): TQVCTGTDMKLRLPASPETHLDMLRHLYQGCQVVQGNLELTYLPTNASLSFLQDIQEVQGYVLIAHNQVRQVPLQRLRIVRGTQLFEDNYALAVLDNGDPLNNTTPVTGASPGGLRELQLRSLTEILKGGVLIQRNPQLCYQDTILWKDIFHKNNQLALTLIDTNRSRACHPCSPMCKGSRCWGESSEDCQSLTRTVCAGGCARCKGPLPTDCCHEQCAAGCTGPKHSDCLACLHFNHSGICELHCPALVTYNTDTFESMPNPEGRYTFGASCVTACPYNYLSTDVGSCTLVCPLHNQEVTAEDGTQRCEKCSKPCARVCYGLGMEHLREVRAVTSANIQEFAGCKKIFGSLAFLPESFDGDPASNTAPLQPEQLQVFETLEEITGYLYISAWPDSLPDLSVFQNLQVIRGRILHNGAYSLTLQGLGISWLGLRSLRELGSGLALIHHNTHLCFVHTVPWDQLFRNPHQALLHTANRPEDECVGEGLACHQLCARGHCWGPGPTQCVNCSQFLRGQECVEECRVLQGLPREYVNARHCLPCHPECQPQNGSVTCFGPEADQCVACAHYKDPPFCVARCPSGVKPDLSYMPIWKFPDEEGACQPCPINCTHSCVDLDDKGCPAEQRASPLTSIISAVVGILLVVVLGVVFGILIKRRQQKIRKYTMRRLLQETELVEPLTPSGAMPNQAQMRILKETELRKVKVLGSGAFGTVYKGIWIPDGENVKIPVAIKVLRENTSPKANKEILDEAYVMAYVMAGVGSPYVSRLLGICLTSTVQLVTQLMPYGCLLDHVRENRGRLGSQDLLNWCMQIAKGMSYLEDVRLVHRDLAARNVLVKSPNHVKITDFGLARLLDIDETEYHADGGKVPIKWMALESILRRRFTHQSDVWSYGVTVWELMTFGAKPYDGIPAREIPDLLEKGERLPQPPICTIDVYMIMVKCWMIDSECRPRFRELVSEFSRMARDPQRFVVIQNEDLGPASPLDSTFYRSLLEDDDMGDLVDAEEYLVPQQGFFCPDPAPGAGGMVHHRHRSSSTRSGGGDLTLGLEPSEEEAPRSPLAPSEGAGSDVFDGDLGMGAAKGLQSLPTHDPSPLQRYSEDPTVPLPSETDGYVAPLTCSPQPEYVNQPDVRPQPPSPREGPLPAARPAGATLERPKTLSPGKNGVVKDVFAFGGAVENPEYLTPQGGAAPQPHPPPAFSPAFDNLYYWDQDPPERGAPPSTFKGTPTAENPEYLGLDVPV
# T4 sequence (P00533 with tags, fused parts or gaps DELINS30-297G): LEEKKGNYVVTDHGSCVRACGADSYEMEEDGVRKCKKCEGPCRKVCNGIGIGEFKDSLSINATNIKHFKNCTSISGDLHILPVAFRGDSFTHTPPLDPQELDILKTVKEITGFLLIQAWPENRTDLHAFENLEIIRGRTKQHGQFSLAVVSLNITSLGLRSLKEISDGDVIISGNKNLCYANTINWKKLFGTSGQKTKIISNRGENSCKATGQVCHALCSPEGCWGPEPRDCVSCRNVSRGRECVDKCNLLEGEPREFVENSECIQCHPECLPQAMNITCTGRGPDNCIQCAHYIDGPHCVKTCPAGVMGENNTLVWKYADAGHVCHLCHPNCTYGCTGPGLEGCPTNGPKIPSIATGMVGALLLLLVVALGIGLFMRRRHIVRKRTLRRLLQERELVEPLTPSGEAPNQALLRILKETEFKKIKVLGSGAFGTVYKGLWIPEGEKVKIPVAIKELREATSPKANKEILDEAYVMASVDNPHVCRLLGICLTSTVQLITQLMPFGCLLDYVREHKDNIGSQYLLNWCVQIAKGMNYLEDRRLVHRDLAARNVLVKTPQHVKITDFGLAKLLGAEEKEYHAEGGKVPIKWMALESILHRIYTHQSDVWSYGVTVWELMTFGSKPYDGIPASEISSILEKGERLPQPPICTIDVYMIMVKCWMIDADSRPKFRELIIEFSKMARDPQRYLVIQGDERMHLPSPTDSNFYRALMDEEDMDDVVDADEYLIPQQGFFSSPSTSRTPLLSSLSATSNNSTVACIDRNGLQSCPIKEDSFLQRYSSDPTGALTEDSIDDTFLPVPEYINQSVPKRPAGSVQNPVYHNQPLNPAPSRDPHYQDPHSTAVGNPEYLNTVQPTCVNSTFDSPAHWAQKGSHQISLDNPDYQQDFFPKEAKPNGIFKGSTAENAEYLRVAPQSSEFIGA
smiles,measurement,setting,value
"CC#CC(=O)Nc1cc2c(Nc3cc(Cl)c(OCc4cccc(F)c4)cc3F)ncnc2cc1O[C@@H]1CCN(C)C1 [compound 151, (R)-N-(4-((5-chloro-2-fluoro-4-((3-fluorobenzyl)oxy)phenyl)amino)-7-((1-methylpyrrolidin-3-yl)oxy)quinazolin-6-yl)but-2-ynamide]",pIC50,[1],6.70 to 7.00
same,pIC50,[2],7.70 to 8.00
same,pIC50,[3],6.70 to 7.00
same,pIC50,[4],7.00 to 7.30
same,pIC50,[5],7.00 to 7.30
same,pIC50,[6],6.70 to 7.00
same,pIC50,[7],6.70 to 7.00
same,pIC50,[8],7.70 to 8.00
"CC#CC(=O)Nc1cc2c(Nc3cc(Cl)c(OCc4cccc(F)c4)cc3F)ncnc2cc1OCCN1CC(OC)C1 [compound 152, N-(4-((5-chloro-2-fluoro-4-((3-fluorobenzyl)oxy)phenyl)amino)-7-(2-(3-methoxyazetidin-1-yl)ethoxy)quinazolin-6-yl)but-2-ynamide]",pIC50,[1],7.00 to 7.30
same,pIC50,[2],8.00 to 8.30
same,pIC50,[3],6.70 to 7.00
same,pIC50,[4],7.30 to 7.52
same,pIC50,[5],7.30 to 7.52
same,pIC50,[6],7.00 to 7.30
same,pIC50,[7],6.70 to 7.00
same,pIC50,[8],8.00 to 8.30
C=CC(=O)Nc1cc2c(Nc3ccc(OCc4cccc(F)n4)c(Cl)c3)ncnc2cc1OCCCN1CCOCC1 [compound 153],pIC50,[1],7.00 to 7.30
same,pIC50,[2],7.70 to 8.00
same,pIC50,[3],6.00 to 6.30
same,pIC50,[4],7.30 to 7.52
same,pIC50,[5],7.30 to 7.52
same,pIC50,[6],7.00 to 7.30
same,pIC50,[7],6.00 to 6.30
same,pIC50,[8],7.70 to 8.00
C=CC(=O)Nc1cc2c(Nc3ccc(OCc4cccc(F)n4)c(Cl)c3)ncnc2cc1OCCN1CCOCC1 [compound 154],pIC50,[1],6.70 to 7.00
same,pIC50,[2],7.30 to 7.52
same,pIC50,[3],6.00 to 6.30
same,pIC50,[4],7.30 to 7.52
same,pIC50,[5],7.30 to 7.52
same,pIC50,[6],6.70 to 7.00
same,pIC50,[7],6.00 to 6.30
same,pIC50,[8],7.30 to 7.52
C=CC(=O)Nc1cc2c(Nc3ccc(OCc4cccc(F)n4)c(Cl)c3)ncnc2cc1OCCCN1CC(OC)C1 [compound 155],pIC50,[1],7.30 to 7.52
same,pIC50,[2],7.70 to 8.00
same,pIC50,[3],6.30 to 6.52
same,pIC50,[4],7.30 to 7.52
same,pIC50,[5],7.30 to 7.52
same,pIC50,[6],7.30 to 7.52
same,pIC50,[7],6.30 to 6.52
same,pIC50,[8],7.70 to 8.00
C=CC(=O)Nc1cc2c(Nc3ccc(OCc4cccc(F)n4)c(Cl)c3)ncnc2cc1OCCN1CC2CCC(C1)O2 [compound 156],pIC50,[1],6.52 to 6.70
same,pIC50,[2],7.30 to 7.52
same,pIC50,[3],< 6.00
same,pIC50,[4],7.00 to 7.30
same,pIC50,[5],7.00 to 7.30
same,pIC50,[6],6.52 to 6.70
same,pIC50,[7],< 6.00
same,pIC50,[8],7.30 to 7.52
C=CC(=O)Nc1cc2c(Nc3ccc(OCc4cccc(F)n4)c(Cl)c3)ncnc2cc1OCCN1CC(OC)C1 [compound 157],pIC50,[1],6.30 to 6.52
same,pIC50,[2],7.30 to 7.52
same,pIC50,[3],6.00 to 6.30
same,pIC50,[4],7.30 to 7.52
same,pIC50,[5],7.30 to 7.52
same,pIC50,[6],6.30 to 6.52
same,pIC50,[7],6.00 to 6.30
same,pIC50,[8],7.30 to 7.52
C=CC(=O)Nc1cc2c(Nc3ccc(OCc4cccc(F)n4)c(Cl)c3)ncnc2cc1OCCN1CCN(C)CC1 [compound 158],pIC50,[1],6.70 to 7.00
same,pIC50,[2],7.30 to 7.52
same,pIC50,[3],6.70 to 7.00
same,pIC50,[4],7.30 to 7.52
same,pIC50,[5],7.30 to 7.52
same,pIC50,[6],6.70 to 7.00
same,pIC50,[7],6.70 to 7.00
same,pIC50,[8],7.30 to 7.52
C=CC(=O)Nc1cc2c(Nc3ccc(OCc4cccc(F)c4)c(Cl)c3)ncnc2cc1OCCCN1C[C@@H]2C[C@H]1CO2 [compound 159],pIC50,[1],6.30 to 6.52
same,pIC50,[2],7.00 to 7.30
same,pIC50,[3],6.30 to 6.52
same,pIC50,[4],6.70 to 7.00
same,pIC50,[5],6.70 to 7.00
same,pIC50,[6],6.30 to 6.52
same,pIC50,[7],6.30 to 6.52
same,pIC50,[8],7.00 to 7.30
C=CC(=O)Nc1cc2c(Nc3ccc(OCc4cccc(F)c4)c(Cl)c3)ncnc2cc1OCCCN1C[C@H]2C[C@@H]1CO2 [compound 160],pIC50,[1],6.30 to 6.52
same,pIC50,[2],6.70 to 7.00
same,pIC50,[3],6.30 to 6.52
same,pIC50,[4],6.70 to 7.00
same,pIC50,[5],6.70 to 7.00
same,pIC50,[6],6.30 to 6.52
same,pIC50,[7],6.30 to 6.52
same,pIC50,[8],6.70 to 7.00
C=CC(=O)Nc1cc2c(Nc3ccc(OCc4cccc(F)n4)c(Cl)c3)ncnc2cc1OCCCN1C[C@@H]2C[C@H]1CO2 [compound 161],pIC50,[1],6.70 to 7.00
same,pIC50,[2],7.30 to 7.52
same,pIC50,[3],6.52 to 6.70
same,pIC50,[4],7.30 to 7.52
same,pIC50,[5],7.30 to 7.52
same,pIC50,[6],6.70 to 7.00
same,pIC50,[7],6.52 to 6.70
same,pIC50,[8],7.30 to 7.52
C=CC(=O)Nc1cc2c(Nc3ccc(OCc4cccc(F)n4)c(Cl)c3)ncnc2cc1OCCCN1C[C@H]2C[C@@H]1CO2 [compound 162],pIC50,[1],6.70 to 7.00
same,pIC50,[2],7.30 to 7.52
same,pIC50,[3],6.30 to 6.52
same,pIC50,[4],7.30 to 7.52
same,pIC50,[5],7.30 to 7.52
same,pIC50,[6],6.70 to 7.00
same,pIC50,[7],6.30 to 6.52
same,pIC50,[8],7.30 to 7.52
C=CC(=O)Nc1cc2c(Nc3ccc(OCc4ccncn4)c(Cl)c3)ncnc2cc1OCCCN1CCOCC1 [compound 163],pIC50,[1],6.70 to 7.00
same,pIC50,[2],7.30 to 7.52
same,pIC50,[3],< 6.00
same,pIC50,[4],7.00 to 7.30
same,pIC50,[5],7.00 to 7.30
same,pIC50,[6],6.70 to 7.00
same,pIC50,[7],< 6.00
same,pIC50,[8],7.30 to 7.52
"CC#CC(=O)Nc1cc2c(Nc3ccc(OCc4ccncn4)c(Cl)c3)ncnc2cc1OCCCN1CCOCC1 [compound 164, N-(4-((3-chloro-4-(pyrimidin-4-ylmethoxy)phenyl)amino)-7-(3-morpholinopropoxy)quinazolin-6-yl)but-2-ynamide]",pIC50,[1],6.70 to 7.00
same,pIC50,[2],7.30 to 7.52
same,pIC50,[3],6.30 to 6.52
same,pIC50,[4],7.00 to 7.30
same,pIC50,[5],7.00 to 7.30
same,pIC50,[6],6.70 to 7.00
same,pIC50,[7],6.30 to 6.52
same,pIC50,[8],7.30 to 7.52
"CC#CC(=O)Nc1cc2c(Nc3ccc(OCc4cccnn4)c(Cl)c3)ncnc2cc1OCCCN1CCOCC1 [compound 165, N-(4-((3-chloro-4-(pyridazin-3-ylmethoxy)phenyl)amino)-7-(3-morpholinopropoxy)quinazolin-6-yl)but-2-ynamide]",pIC50,[1],7.00 to 7.30
same,pIC50,[2],7.70 to 8.00
same,pIC50,[3],6.70 to 7.00
same,pIC50,[4],7.30 to 7.52
same,pIC50,[5],7.30 to 7.52
same,pIC50,[6],7.00 to 7.30
same,pIC50,[7],6.70 to 7.00
same,pIC50,[8],7.70 to 8.00
C=CC(=O)Nc1cc2c(Nc3ccc(OCc4ncccn4)c(Cl)c3)ncnc2cc1OCCCN1CCOCC1 [compound 166],pIC50,[1],6.70 to 7.00
same,pIC50,[2],7.30 to 7.52
same,pIC50,[3],< 6.00
same,pIC50,[4],7.30 to 7.52
same,pIC50,[5],7.30 to 7.52
same,pIC50,[6],6.70 to 7.00
same,pIC50,[7],< 6.00
same,pIC50,[8],7.30 to 7.52
C=CC(=O)Nc1cc2c(Nc3ccc(OCc4cccnn4)c(Cl)c3)ncnc2cc1OCCCN1CCOCC1 [compound 167],pIC50,[1],7.00 to 7.30
same,pIC50,[2],7.70 to 8.00
same,pIC50,[3],< 6.00
same,pIC50,[4],7.30 to 7.52
same,pIC50,[5],7.30 to 7.52
same,pIC50,[6],7.00 to 7.30
same,pIC50,[7],< 6.00
same,pIC50,[8],7.70 to 8.00
"CC#CC(=O)Nc1cc2c(Nc3ccc(OCc4ncccn4)c(Cl)c3)ncnc2cc1OCCCN1CCOCC1 [compound 168, N-(4-((3-chloro-4-(pyrimidin-2-ylmethoxy)phenyl)amino)-7-(3-morpholinopropoxy)quinazolin-6-yl)but-2-ynamide]",pIC50,[1],7.00 to 7.30
same,pIC50,[2],7.52 to 7.70
same,pIC50,[3],6.52 to 6.70
same,pIC50,[4],7.30 to 7.52
same,pIC50,[5],7.30 to 7.52
same,pIC50,[6],7.00 to 7.30
same,pIC50,[7],6.52 to 6.70
same,pIC50,[8],7.52 to 7.70
